{"source": "patent US20210371385A1", "about": "“POLYMORPHIC AND AMORPHOUS FORMS OF ISOQUINOLINONE AND METHODS OF USE THEREOF” (Sojournix, Inc., priority 2018, published 2021)", "format_in_all_cases": "physicochemical", "key": {"[1]": {"test": "Stability in high humidity (40 °C/75% RH, XRPD)", "settings": "one week", "description": "Patterns α (L100142-37-5), β (L100142-1-1) and free flowing amorphous solid (L100142-19-1) SJB-01 were exposed to a 40° C./75% RH environment for one week."}, "[2]": {"test": "Dynamic vapor sorption (DVS)", "description": "Pattern β was analyzed using DVS with two sorption/desorption cycles. The solid reversibly picked-up about 0.12% between 2-95% relative humidity at 25° C.\nDynamic Vapor Sorption (DVS) was done using a DVS Intrinsic 1. The sample is loaded into a sample pan and suspended from a microbalance. A typical sample mass for DVS measurement is 25 mg. Nitrogen gas bubbled through distilled water provides the desired relative humidity. A typical measurement comprises the steps:\n2. 50% to 2%. (50%, 40%, 30%, 20%, 10% and 2%)-Hold minimum of 5 mins and maximum of 60 minutes at each humidity. The pass criteria is less than 0.002% change.\n3. 2% to 95% (2%, 10%, 20%, 30%, 40%, 50%, 60%, 70%, 80%, 90%, 95%)-Hold minimum of 5 mins and maximum of 60 minutes at each humidity. The pass criteria is less than 0.002% change.\n4. 95% to 2% (95%, 80%, 70%, 60%, 50%, 40%, 30%, 20%, 10%, 2%)-Hold minimum of 5 mins and maximum of 60 minutes at each humidity. The pass criteria is less than 0.002% change.\n5. 2% to 50% (2%, 10%, 20%, 30%, 40%, 50%)-Hold minimum of 5 mins and maximum of 60 minutes at each humidity. The pass criteria is less than 0.002% change."}, "[3]": {"test": "Thermodynamic equilibrium aqueous solubility", "settings": "pH 7.4"}, "[4]": {"test": "Solubility in vehicles/excipients for in vivo and toxicological studies", "settings": "for Maximum single dose in solubilized form: dogs, 100% PEG 400, maximum volume 1-2 ml/kg; for Maximum dose in solubilized form, 100% PEG 400 / Maximum dose in solubilized form, Gelucire:PEG 400 90:10: rats; for Maximum dose in solubilized form, 100% PEG 400: 5 ml/kg is maximum volume dose; for Maximum dose in solubilized form, Gelucire:PEG 400 90:10: 10 ml/kg is maximum volume dose", "description": "In addition, the solubility of SJB-01 was investigated in a large number of vehicles for use in in vivo pharmacological studies, as well as toxicological evaluation of the compound.\nFormulations for toxicological evaluation of SJB-01 were considered. The highest solubility was obtained with 100% PEG 400 and a mixture of Gelucire and PEG 400. Since a formulation with Gelucire:PEG required increased handling time, including dosing at ˜45° C., 100% PEG 400 was chosen for formulation purpose in the early toxicological evaluation including mini-MTD (maximum tolerated dose) and a 14 days toxicological dosing study. The maximum dose reached was 140 mg/kg-the highest possible dose achievable with PEG 400 as vehicle. […] From a formulation perspective, this can only be done by using Gelucire:PEG as a vehicle, under the assumption that a solution will lead to a higher bioavailability than dosing the compound in a PEG 400 suspension. In the table below, the maximum dose of SJB-01 given on a solubilized form is provided, taking into account the tolerated dose of the vehicle as well."}, "[5]": {"test": "Solubility in water and simulated fluids (FaSSIF, FaSSGF) at 37 °C", "settings": "for Solubility / solubility at 24 h: 37 °C; for solubility at 24 h: thermodynamic from solid; for Solubility in FaSSIF: fasted state simulated intestinal fluid", "excerpt": "The solids were slurried in the respective solution for 24 hrs then the liquid isolated by syringe filtration for analysis by HPLC. The data are summarized in Table 19; the solubility of all forms in all solutions is on the microgram scale. Essentially, none of these are substantially advantageous over the other ones in terms of equilibrium solubility."}, "[6]": {"test": "Solid form stability at ambient conditions by XRPD", "settings": "for Solid form stability: ambient conditions / room temperature, XRPD"}, "[7]": {"test": "Intrinsic Dissolution Rate (IDR)", "settings": "0.001 M HCl pH 3.0; pressed tablet", "description": "The Intrinsic Dissolution Rate (IDR) was calculated for a beta polymorph form of SJB-01. A tablet of the compound was pressed and put into a dissolution chamber. It was subsequently measured how fast the substance was dissolved from the surface into the solvent. Initially, the experiment was performed in a standard buffer (0.001 M HCl pH 3.0), reflecting the stomach conditions at fastened state.\nDue to the high impact of bile components on solubilisation of SJB-01, IDR was performed in FeSSIF media, reflecting the fed-state in humans."}, "[8]": {"test": "Solubility in bio-relevant media", "description": "The solubility of the beta polymorph form of SJB-01 was further examined in bio-relevant media. The fasted-state small intestinal fluid (FaSSIF) contained 3 mM sodium taurocholate (bile acid), 0.75 mM lecithin (phosphorlipid) and phosphate buffer to maintain a pH of 6.0. The fed-state small intestinal fluid (FeSSIF) contained 5-fold higher concentration of sodium taurocholate and lecithin and thus higher capacity for micellar solubilization of the compound. The pH in the FeSSIF buffer was maintained to 5.0 with acetate buffer."}, "[9]": {"test": "Solubility in buffered solutions vs pH at 37 °C (HPLC)", "settings": "aqueous buffers, aqueous buffer, thermodynamic from solid; about 37 °C; read-out: Solubility in buffered solution (range)", "description": "Aqueous buffers between pH 1.3 and 7.4 (13 total) were prepared and 3 mL added to about 15 mg of SJB-01 (L100149-44-1, jet-milled). These slurries were stirred on a hot-plate at 37° C. for 24 hours. Sonication and vortexting was employed within the first 2 hours of stirring to ensure thorough mixing and wetting of the solids as there was a clear tendency for them to clump and float at the liquid surface. After sonication and vortexing there was substantial solids suspended in solution (slurry) along with the solids that floated on top. At 24 hours, the samples were collected by syringe filtration of about 2 mL of solution. The first 1 mL of solution that passed through the filter was discarded and the second 0.5-1 mL of solution was used for HPLC analysis. The samples were injected into HPLC without dilution.\nSJB-01 (L100149-44-1) was weighed directly into volumetric flasks and filled to volume with ACN:water (6:4 vol.) to build a calibration curve. […] Details for the HPLC method used are given in Table 34; these follow the parameters used for previous dissolution study."}, "[10]": {"settings": "about 37 °C, listed as amorphous form"}, "[11]": {"settings": "about 37 °C, listed as beta form"}}, "note": "Values joined by “and” are separate entries in the source; they are usually repeats but may differ in a detail not shown here. Identical values can stand only once. “Also recorded” adds a separate entry of the source.", "data": [{"smiles": "CCNn1c(C)c(C(=O)N[C@H](c2ccccc2)C2CC2)c2cccc(F)c2c1=O", "note": "[Pattern α, 2-ethylamino-8-fluoro-3-methyl-1-oxo-1,2-dihydro-isoquinoline-4-carboxylic acid ((S)-cyclopropyl-phenyl-methyl)-amide]", "values": [{"measurement": "Solid form by XRPD after humidity exposure", "setting": "[1]", "value": "converted considerably to Pattern β"}, {"measurement": "Moisture pick-up by DVS", "setting": "[2]; 2-95% relative humidity, 25 °C", "value": "about 0.6%"}, {"measurement": "solubility thermodynamic", "setting": "[3]; aqueous medium, aqueous buffer, thermodynamic from solid", "value": "~14", "unit": "µg/mL"}, {"measurement": "Solubility in 100% PEG 400", "setting": "[4]", "value": 32, "unit": "mg base/ml"}, {"measurement": "Solubility in Gelucire:PEG 400 90:10", "setting": "[4]", "value": 40, "unit": "mg base/ml"}, {"measurement": "Maximum single dose in solubilized form", "setting": "[4]; listed as α-form", "value": "28 to 56", "unit": "mg/kg"}, {"measurement": "Maximum dose in solubilized form, 100% PEG 400", "setting": "[4]; listed as α-form", "value": 140, "unit": "mg/kg"}, {"measurement": "Maximum dose in solubilized form, Gelucire:PEG 400 90:10", "setting": "[4]; listed as α-form", "value": 360, "unit": "mg/kg"}, {"measurement": "Solubility", "setting": "[5]; FaSSGF, 24 hrs", "value": 7, "unit": "µg/mL"}, {"measurement": "solubility at 24 h", "setting": "[5]; FaSSGF, fassgf or other biorelevant, fasted state simulated gastric fluid, about 37 °C, read-out: Solubility in FaSSGF", "value": 7, "unit": "µg/mL"}, {"measurement": "Solubility", "setting": "[5]; FaSSIF, 24 hrs", "value": 8, "unit": "µg/mL"}, {"measurement": "Solubility in FaSSIF", "setting": "[5]; about 37 °C, listed as alpha form", "value": 8, "unit": "µg/mL"}, {"measurement": "solubility at 24 h", "setting": "[5]; water, water, water, about 37 °C, read-out: Solubility in water", "value": 6, "unit": "µg/mL"}, {"measurement": "solubility at 24 h", "setting": "[5]; water, FaSSIF and FaSSGF, about 37 °C, read-out: Solubility in water and simulated fluids (range)", "value": "6 to 8", "unit": "µg/mL"}, {"measurement": "Solid form stability", "setting": "[6]", "value": "not stable; also recorded: less stable than Pattern β"}]}, {"smiles": "CCNn1c(C)c(C(=O)N[C@H](c2ccccc2)C2CC2)c2cccc(F)c2c1=O", "note": "[Amorphous, 2-ethylamino-8-fluoro-3-methyl-1-oxo-1,2-dihydro-isoquinoline-4-carboxylic acid ((S)-cyclopropyl-phenyl-methyl)-amide]", "values": [{"measurement": "Solid form by XRPD after humidity exposure", "setting": "[1]; listed as amorphous solid", "value": "converted considerably to Pattern β"}, {"measurement": "Solubility", "setting": "[5]; FaSSGF, 24 hrs", "value": 6, "unit": "µg/mL"}, {"measurement": "Solubility", "setting": "[5]; FaSSIF, 24 hrs", "value": 18, "unit": "µg/mL"}, {"measurement": "Solubility", "setting": "[5]; Water, 24 hrs", "value": 5, "unit": "µg/mL"}, {"measurement": "Solubility in water and simulated fluids (range)", "setting": "[5]; [10]", "value": "5 to 18", "unit": "µg/mL"}, {"measurement": "Solubility in FaSSGF", "setting": "[5]; fasted state simulated gastric fluid, about 37 °C, listed as amorphous form", "value": 6, "unit": "µg/mL"}, {"measurement": "Solubility in FaSSIF", "setting": "[5]; [10]", "value": 18, "unit": "µg/mL"}, {"measurement": "Solubility in water", "setting": "[5]; water, about 37 °C, listed as amorphous form", "value": 5, "unit": "µg/mL"}, {"measurement": "Solid form stability", "setting": "[6]; listed as powdered amorphous freebase", "value": "still showed an amorphous pattern"}, {"measurement": "Time amorphous form remained stable", "setting": "[6]; ambient environment", "value": "at least 17 days"}]}, {"smiles": "CCNn1c(C)c(C(=O)N[C@H](c2ccccc2)C2CC2)c2cccc(F)c2c1=O", "note": "[Pattern β, 2-ethylamino-8-fluoro-3-methyl-1-oxo-1,2-dihydro-isoquinoline-4-carboxylic acid ((S)-cyclopropyl-phenyl-methyl)-amide]", "values": [{"measurement": "Solid form by XRPD after humidity exposure", "setting": "[1]", "value": "remained unchanged"}, {"measurement": "Intrinsic Dissolution Rate (IDR)", "setting": "[7]", "value": 0.002, "unit": "mg/cm^2·min"}, {"measurement": "Hygroscopicity", "setting": "[2]; DVS, two sorption/desorption cycles", "value": "not hygroscopic"}, {"measurement": "Solubility in bio-relevant media", "setting": "[8]; 0.001M HCl pH 3.0", "value": 8, "unit": "μg base/ml"}, {"measurement": "Solubility in bio-relevant media", "setting": "[8]; FaSSIF, pH 6.0", "value": 11, "unit": "μg base/ml"}, {"measurement": "Solubility in bio-relevant media", "setting": "[8]; FeSSIF, pH 5.0", "value": 19, "unit": "μg base/ml"}, {"measurement": "Thermodynamic equilibrium solubility", "setting": "[3]", "value": "~8", "unit": "μg base/ml"}, {"measurement": "solubility at 24 h", "setting": "[9]", "value": "6.4 to 9.8", "unit": "µg/mL"}, {"measurement": "Solubility in 100% PEG 400", "setting": "[4]", "value": 22, "unit": "mg base/ml"}, {"measurement": "Solubility in Gelucire:PEG 400 90:10", "setting": "[4]", "value": 26, "unit": "mg base/ml"}, {"measurement": "Maximum single dose in solubilized form", "setting": "[4]; listed as β-form", "value": "20 to 40", "unit": "mg/kg"}, {"measurement": "Maximum dose in solubilized form, 100% PEG 400", "setting": "[4]; listed as β-form", "value": 100, "unit": "mg/kg"}, {"measurement": "Maximum dose in solubilized form, Gelucire:PEG 400 90:10", "setting": "[4]; listed as β-form", "value": 230, "unit": "mg/kg"}, {"measurement": "solubility at 24 h", "setting": "[5]; FaSSGF (fasted state simulated gastric fluid), fassgf or other biorelevant, FaSSGF, 24 hrs, read-out: Solubility", "value": 6, "unit": "µg/mL"}, {"measurement": "Solubility", "setting": "[5]; FaSSIF, 24 hrs", "value": 8, "unit": "µg/mL"}, {"measurement": "Solubility in water and simulated fluids (range)", "setting": "[5]; [11]", "value": "5 to 8 µg/mL and 6 to 10 µg/mL"}, {"measurement": "Solubility in FaSSIF", "setting": "[5]; [11]", "value": 8, "unit": "µg/mL"}, {"measurement": "solubility at 24 h", "setting": "[5]; water, water, Water, 24 hrs, read-out: Solubility", "value": 5, "unit": "µg/mL"}, {"measurement": "Solid form stability", "setting": "[6]", "value": "most stable polymorph"}]}]}
